Reference: PubChem BioAssay AID790 (SRMLSC, 2007)
Activity calls are given as the source filed them. No rule for the calls is given here.

Key:
[1] = growth inhibition of yeast vps1Δ mutant, dose response, S. cerevisiae, background strain comparison (AID 790); conditions: S. cerevisiae vps1Δ mutant growth inhibition; measured here: background strain growth inhibition
[2] = tested on: S. cerevisiae vps1Δ mutant growth inhibition; test: as above

SMILES	IC50 [1] [µM]	IC50 [2]
CC(C)Cc1[nH]c(=O)c(C#N)c2c1CCC2	> 10	> 10 µM (inactive)
CCOc1ccc(-c2[nH]ncc2Oc2ccccc2OCC)c(O)c1	16	23.7 µM (inactive)
Cc1cc([N+](=O)[O-])c(-c2ccc(/C=N/n3cnnc3)o2)cc1Cl	0.134	0.115 µM
O=C(CCl)c1ccc(Cc2ncc(C(F)(F)F)cc2Cl)s1	8.68	9.7 µM (inactive)
O=C(N/N=C/c1ccc(OC(=O)c2ccccc2)cc1)c1ccc(CN2CCOCC2)cc1	> 10	> 10 µM (inactive)
O=C(OCn1nnc2ccccc2c1=O)c1cn(-c2ccccc2)nc1-c1cccnc1	> 10	> 10 µM (inactive)
CCCCCOc1ccc(Cl)cc1CN1CCOCC1	> 10	> 10 µM (inactive)
O=C(C1COc2ccccc2O1)N1CCN(Cc2ccc3c(c2)OCO3)CC1 (centres undefined)	> 10	> 10 µM (inactive)
O=c1c2cccc3c2c(nn1CN1CCOCC1)-c1ccccc1-3	> 10	> 10 µM (inactive)
O=C(NCc1ccc2c(c1)OCO2)c1ccc(CS(=O)(=O)c2cccc(C(F)(F)F)c2)o1	> 10	> 10 µM (inactive)
Cc1cc(=O)[nH]c(SCC(=O)c2ccc(C)c(C)c2)n1	2.31	0.896 µM
CC(=O)c1cnc2nc(C)nn2c1C	> 10	> 10 µM (inactive)
COc1ccccc1N1CCN(Cc2ccccc2F)CC1	> 10	> 10 µM (inactive)
c1ccc(Nc2cc(-c3ccccc3)nc3ncnn23)cc1	> 10	5.22 µM
Cc1cc(C)c2c(c1)/C(=C/C(=O)c1ccc(Br)s1)C(=O)N2	1.42	3.71 µM (inactive)
CCOC(=O)c1cccnc1SCc1cc(=O)n2ccccc2n1	> 10	> 10 µM (inactive)
COc1ccc(NC(=O)c2ccc(CN3CCN(c4ccccc4)CC3)cc2)cc1	> 10	> 10 µM (inactive)
O=C(Cn1ncc2c3ccccc3n(Cc3ccccc3F)c2c1=O)N1CCC2(CC1)OCCO2	> 10	> 10 µM (inactive)
C/C(CCC12CC3CC(CC(C3)C1)C2)=N\NC(N)=S	5.28	12.7 µM (inactive)

SMILES	IC50 [1] [µM]	IC50 [2]
CCC(C)c1ccc(OCCCCN2CCOCC2)cc1 (centres undefined)	> 10	> 10 µM (inactive)
Cc1ccc(S(=O)(=O)N(CC(=O)N2CCC(C(N)=O)CC2)c2cccc(C(F)(F)F)c2)cc1	> 10	> 10 µM (inactive)
CCCCC(=O)Nc1nc(C)c(-c2csc(Nc3ccc(Cl)cc3)n2)s1	6.26	6.39 µM (inactive)
CCCCC1(CCCC)C(=O)NC(=Nc2cccc(C)c2)NC1=O	> 10	> 10 µM (inactive)
FC(F)(F)COc1nc(N2CCCCC2)nc(N2CCNCC2)n1	> 10	> 10 µM (inactive)
Cc1cc(OCC(F)(F)C(F)(F)C(F)(F)C(F)(F)C(F)(F)C(F)F)nc(N)n1	> 10	> 10 µM (inactive)
COCCCn1c2nc3ccccc3nc2c2c(=O)n(-c3ccccc3OC)cnc21	> 10	> 10 µM (inactive)
Nc1c(C(=O)OCC2CCCO2)c2nc3ccccc3nc2n1-c1ccc2c(c1)OCCO2 (centres undefined)	> 10	> 10 µM (inactive)
CCCn1c(SCc2cc(=O)oc3ccc4ccccc4c23)n[nH]c1=O	> 10	> 10 µM (inactive)
Cn1c2ccc(Cl)cc2c2nc3ccccc3nc21	> 10	> 10 µM (inactive)
CCOCCCNC(=O)C1CCN(C(=O)N(C)C)CC1	> 10	> 10 µM (inactive)
Clc1cc(Br)ccc1OCCOCCN1CCOCC1	> 10	> 10 µM (inactive)
CCC(=O)c1ccc(N2CCN(C(=O)c3ccc(Br)cc3)CC2)c(F)c1	> 10	> 10 µM (inactive)
O=C(NCc1ccc2c(c1)OCO2)c1ccc(-n2cnnn2)cc1	> 10	> 10 µM (inactive)
Cc1nnc(-c2cccc(Br)c2)c2cn(-c3ccccc3Cl)nc12	25.9	2.01 µM
Cc1ccc(S(=O)(=O)N2CC3CC(C2)c2cccc(=O)n2C3)cc1 (centres undefined)	> 10	> 10 µM (inactive)
CCOC(=O)C(NC(C)=O)(Nc1ccc(S(=O)(=O)Nc2onc(C)c2C)cc1)C(F)(F)F (centres undefined)	> 10	> 10 µM (inactive)
COc1ccc2c(c1)C(C)=CC(C)(C)N2C(=O)CSc1nnc(-c2ccc(C)cc2)o1	> 10	> 10 µM (inactive)
Cc1ccc(OCC(O)CN2CCN(Cc3ccc4c(c3)OCO4)CC2)c(C)c1 (centres undefined)	> 10	> 10 µM (inactive)

SMILES	IC50 [1] [µM]	IC50 [2]
COc1ccc(C2=NC(C(F)(F)F)(C(F)(F)F)c3c(n(C)c(=O)n(C)c3=O)N2)cc1	> 10	> 10 µM (inactive)
Cc1cc2ncn(CC(O)COc3cccc(C(=O)O)c3)c2cc1C (centres undefined)	> 10	> 10 µM (inactive)
O=C(NC1CCN(Cc2ccccc2)CC1)C1COc2ccccc2O1 (centres undefined)	> 10	> 10 µM (inactive)
COc1cccc(-c2cc(C(=O)N3CCN(C(c4ccccc4)c4ccccc4)CC3)no2)c1	> 10	> 10 µM (inactive)
O=C(N/N=C/c1ccc([N+](=O)[O-])o1)c1cc(-c2cccc(Br)c2)nc2ccccc12	4.65	0.918 µM
O=C(COc1ccc(Cl)cc1Cl)N1CCN(C/C=C/c2ccccc2)CC1	7.14	13.2 µM (inactive)
COc1ccc(-c2cc(N)n(S(=O)(=O)c3c(F)c(F)c(F)c(F)c3F)n2)cc1OC	1.08	2.29 µM (inactive)
O=C(NCc1ccc2c(c1)OCO2)C1CCCN1C(=O)Nc1ccccc1 (centres undefined)	> 10	> 10 µM (inactive)
O=C(OCn1ncc(Cl)c(Cl)c1=O)c1cccc(C(F)(F)F)c1	3.51	3.35 µM
Cn1nnc2cc(C(=O)Nc3cccnc3)ccc21	> 10	> 10 µM (inactive)
Cc1cc(C)nc(NC(=O)CSc2nn(C)c(=S)s2)n1	> 10	> 10 µM (inactive)
COc1ccc(C2C3=C(CCCC3=O)Nc3nc(-c4cc(OC)c(OC)c(OC)c4)nn32)cc1OC (centres undefined)	> 10	> 10 µM (inactive)
CCN(CC)c1ccc(-c2nc3cnccc3n2C)cc1	> 10	> 10 µM (inactive)
Cc1ccc(-n2cc3c(-c4cccc(Br)c4)nnc(C)c3n2)cc1	13.5	1.48 µM
Cc1ccn2cc(-c3nonc3C)cc2c1	> 10	> 10 µM (inactive)
COc1ccccc1N1CCN(C2CCN(C(=O)c3cc(OC)c(OC)c(OC)c3)CC2)CC1	> 10	> 10 µM (inactive)
COc1cccc(NC(=O)c2ccc(CN3CCN(c4ccccc4)CC3)cc2)c1	> 10	> 10 µM (inactive)
Clc1ccc2[nH]c3c(NCC4CCCO4)ncnc3c2c1 (centres undefined)	> 10	> 10 µM (inactive)
O=C(c1ccco1)N1CCN(c2ncnc3c2[nH]c2ccccc23)CC1	> 10	> 10 µM (inactive)
